Measured values as given in US7361743B2 (Pfizer Inc, priority 2004, dated 2008).
≈ marks a conversion by molar mass, not a printed value. Read-outs that look alike come from different tables or passages of the source.

Key:
[1] = tested on: Staphylococcus aureus; assay: Susceptibility testing, NCCLS microdilution MIC; format: cell-based
[2] = tested on: Haemophilus influenzae; assay: Susceptibility testing, NCCLS microdilution MIC; format: cell-based; conditions: Haemophilus influenzae, Example A′
[3] = tested on: E. coli transcription/translation (bacterial protein synthesis, E. coli S30 extract); assay: In vitro inhibition of E. coli transcription and translation assay (TT), cell-free; format: biochemical; conditions: for IC50: cell-free E. coli S30 extract; for In vitro inhibition of E. coli transcription and translation compared with literature azepine compound VIII(18): cell-free TT assay, comparison in words
Procedure: Inhibition of bacterial protein synthesis was assayed in a cell-free E. coli transcription/translation assay.
Stock solutions of compounds were prepared at 10 mg/mL in DMSO. The assay contained less or equal to 1% (v/v) final concentration of DMSO. Three-fold serial dilutions were prepared in assay buffer at 6-fold final concentration in 96 well microtiter plate.
All vials, tubes and microtiter plates are RNase free. The Mix was freshly prepared with 10 μl H2O, 10 μl AA-M, 10 μl AA-L, 80 μl Premix and 50 μl ES30 extract. The assay was performed in a 96-well plate. Five microliters of compounds at various concentrations (6-fold final assay concentration) were preincubated with 20 μl of the mix for 5 min at room temperature. The reaction started with addition of 5 μl of plasmid (˜0.1 mg/mL pGEMBGAL), and kept at 37° C. for 1 h followed by the addition of 150 μl of OPNG solution (4 mg/mL OPNG in 0.1M NaPi, pH 7.5, 1 mM MgCl2 and 2 mM DTT). 150 μl of the reaction was transferred to a ½-area plate and increase in absorption at OD420 nm was monitored for 10 min using a Spectramax plate reader (Molecular Devices). The slope of absorption change over time is corresponding to the pathway activity.
The E. coli S30 Extract for circular DNA kit was purchased from Promega. Original plasmid pGEMBGAL was obtained from Promega and amplified via Maxiprep in house. 2-Nitrophenyl β-D-galactopyranoside was obtained from Sigma. Clindamycin HCl (USP) was purchased from Spectrum.
The inhibition are expressed as percent of control activity (without inhibitor) which is calculated according to equation (1): Inhibition %=(compound slope-blank slope)/(control slope-blank slope)*100 (1)
All IC50s were determined by fitting the experimental data to equation (2) using software DeltaGraph (DeltaPoint Inc.): Y=Y0/(1+(X/IC50)[…])+c (2)
Where Y: activity at given inhibitor concentration; Y0: activity without inhibitor; X: inhibitor concentration; d: slope; c: constant.
Lincosamides inhibit bacterial growth through binding to the bacterial 50S ribosome, thus inhibiting peptide bond formation. The transcription/translation assay provides a screening tool to measure inhibition of bacterial protein synthesis pathway at the target level without the complication of differences in membrane permeability.

[4] = tested on: Staphylococcus aureus Smith; assay: Efficacy in murine S. aureus septicemia; format: in vivo, ICR mice; conditions: for Efficacy in the murine S. aureus septicemia model relative to clindamycin: IV route of administration, compound given 1 hour after inoculation; for ED50: Staphylococcus aureus, murine S. aureus Smith septicemia, dosed 1 hour after inoculation, mortality 7 days
Procedure: (§1) Efficacy studies were performed in an S. aureus murine septicemia model according to models published elsewhere (Goldstein, B. P., G. Candiani, T. M. Arain, G. Romano, I. Ciciliato, M. Berti, M. Abbondi, R. Scotti, M. Mainini, F. Ripamonti, and et al. 1995. Antimicrobial activity of MDL 63,246, a new semisynthetic glycopeptide antibiotic Antimicrob. Agents Chemother. 39:1580-1588; Misiek, M., T. A. Pursiano, F. Leitner, and K. E. Price 1973. Microbiological properties of a new cephalosporin, BL-S 339:7-(phenylacetimidoyl-aminoacetamido)-3-(2-methyl-1,3,4-thiadiazol-5-ylthio methyl)ceph-3-em-4-carboxylic acid Antimicrob. Agents Chemother. 3:40-48).
Compounds were dissolved in 2% Tween 80 for oral dosing or 0.9% NaCl solution for intravenous dosing. Compounds were administered at 1 hour after bacterial inoculation. Vancomycin or ampicillin were used as controls.
(§2) Male or female ICR mice weighing 22±2 g from MDS Pharma Services were used for the evaluation. Food and water was given ad libitum. Groups of 6 mice weighing […] were used for the experiment. Mice were inoculated intraperitoneally with Staphylococcus aureus Smith at 4 104 CFU in 0.5 ml of Brain Heart Infusion Broth (Difco) containing 5% mucin (Sigma). Mortality was recorded once daily for 7 days following bacterial inoculation.
as §1, with “39:1580-1588.;” for “39:1580-1588;”, “339: 7-(phenylacetimidoyl-aminoacetamido)-3-(2-methyl-1,3,4-thiadiazol-5-ylthio” for “339:7-(phenylacetimidoyl-aminoacetamido)-3-(2-methyl-1,3,4-thiadiazol-5-ylthio”
as §2, with “mL” for “ml”

[5] = tested on: Enterococcus faecalis; assay: Susceptibility testing, NCCLS microdilution MIC; format: cell-based; conditions: Enterococcus faecalis, Example A′
[6] = tested on: Bacteroides fragilis; assay: Susceptibility testing, NCCLS microdilution MIC (anaerobe); format: cell-based; conditions: Bacteroides fragilis, ATCC25285; B. fragilis ATCC 25285; Example A′; read-out: MIC B. fragilis
[7] = ATCC25923, S. aureus ATCC 25923, Example A′, read-out: MIC S. aureus
[8] = ATCC31517, H. influenzae ATCC 31517, read-out: MIC H. influenzae
[9] = intravenous administration, read-out: ED50, IV
[10] = ATCC29212, E. faecalis ATCC 29212, read-out: MIC E. faecalis

Structure (SMILES) | MIC [1, 7] [µg/mL] | MIC [2, 8] [µg/mL] | IC50 [3] [µM] | In vitro inhibition of E. coli transcription and translation compared with literature azepine compound VIII(18) [3] | Efficacy in the murine S. aureus septicemia model relative to clindamycin ([4]; mice) | ED50 [4, 9] [mg/kg] | MIC [5, 10] [µg/mL] | MIC [6] [µg/mL] | ED50 ([4]; oral administration, read-out: ED50, PO) [mg/kg] | Efficacy in the murine S. aureus septicemia model by oral route ([4]; oral route of administration, mice) | MIC ([1]; Example A′, strain not stated, 24 h at 35° C., read-out: MIC against Staphylococcus aureus) [µg/mL] | MIC ([2]; strain not stated, 24 h at 35° C., read-out: MIC against Haemophilus influenzae) [µg/mL] | MIC ([5]; strain not stated, 24 h at 35° C., read-out: MIC against Enterococcus faecalis) [µg/mL]
CS[C@H]1O[C@H]([C@H](NC(=O)C2CC[C@H](CCCCF)CCN2)[C@H](C)Cl)[C@H](O)[C@H](O)[C@H]1O (stereo in doubt) [Example 3′, 5-(4-Fluoro-butyl)-azepane-2-carboxylic acid [2-chloro-1-(3,4,5-trihydroxy-6-methylsulfanyl-tetrahydro-pyran-2-yl)-propyl]-amide] | 0.03 (≈ 0.0637 µM) | 0.25 (≈ 0.531 µM) | 0.19 | markedly superior | three to greater than five fold better | 0.32 | 0.06 (≈ 0.127 µM) | 0.5 (≈ 1.06 µM) |  |  |  |  | 
CS[C@H]1O[C@H]([C@H](NC(=O)C2CC[C@H](CCCCF)CCN2)C(C)C)[C@H](O)[C@H](O)[C@H]1O (stereo in doubt) [Example 4′, 5-(4-Fluoro-butyl)-azepane-2-carboxylic acid [2-methyl-1-(3,4,5-trihydroxy-6-methylsulfanyl-tetrahydro-pyran-2-yl)-propyl]-amide] | 0.06 (≈ 0.133 µM) | 0.5 (≈ 1.11 µM) | 0.49 | markedly superior | three to greater than five fold better | 0.28 | 0.125 (≈ 0.277 µM) | 1 (≈ 2.22 µM) |  |  |  |  | 
CS[C@H]1O[C@H]([C@H](NC(=O)C2CC[C@H](CCCF)CCN2)[C@H](C)Cl)[C@H](O)[C@H](O)[C@H]1O (stereo in doubt) [Example 5′, 5-(3-Fluoro-propyl)-azepane-2-carboxylic acid [2-chloro-1-(3,4,5-trihydroxy-6-methylsulfanyl-tetrahydro-pyran-2-yl)-propyl]-amide] | 0.03 (≈ 0.0656 µM) | 0.25 (≈ 0.547 µM) | 2.41 | markedly superior | three to greater than five fold better | 0.18 | 0.06 (≈ 0.131 µM) | 0.25 (≈ 0.547 µM) | 6.84 | demonstrated the potential for use of the compounds as orally administered therapeutic agents |  |  | 
CS[C@H]1O[C@H]([C@H](NC(=O)[C@@H]2CC[C@H](CCCCOc3cccnc3)CCN2)[C@H](C)Cl)[C@H](O)[C@H](O)[C@H]1O [Example 14′, 5-[4-(Pyridin-3-yloxy)-butyl]-azepane-2-carboxylic acid [2-chloro-1-(3,4,5-trihydroxy-6-methylsulfanyl-tetrahydro-pyran-2-yl)-propyl]-amide] | 0.125 (≈ 0.229 µM) | 1 (≈ 1.83 µM) | 0.2 | markedly superior |  |  | 0.5 (≈ 0.916 µM) | 8 (≈ 14.6 µM) |  |  |  |  | 
CS[C@H]1O[C@H]([C@H](NC(=O)[C@@H]2CC[C@H](CCCOc3cccnc3)CCN2)[C@H](C)Cl)[C@H](O)[C@H](O)[C@H]1O [Example 15′, 5-[3-(Pyridin-3-yloxy)-propyl]-azepane-2-carboxylic acid [2-chloro-1-(3,4,5-trihydroxy-6-methylsulfanyl-tetrahydro-pyran-2-yl)-propyl]-amide] | 0.125 (≈ 0.235 µM) | 2 (≈ 3.76 µM) | 1.1 | markedly superior |  |  | 0.5 (≈ 0.94 µM) | > 8 |  |  |  |  | 
COCc1cn(CCC[C@@H]2CCN[C@H](C(=O)N[C@@H]([C@H]3O[C@H](SC)[C@H](O)[C@@H](O)[C@H]3O)[C@H](C)Cl)CC2)nn1 [Example 16′, 5-[3-(4-Methoxymethyl-[1,2,3]triazol-1-yl)-propyl]-azepane-2-carboxylic acid [2-chloro-1-(3,4,5-trihydroxy-6-methylsulfanyl-tetrahydro-pyran-2-yl)-propyl]-amide] | 2 (≈ 3.64 µM) | 2 (≈ 3.64 µM) | 0.44 | markedly superior |  |  | > 8 | > 8 |  |  |  |  | 
CCCc1cn(CCC[C@@H]2CCN[C@H](C(=O)N[C@@H]([C@H]3O[C@H](SC)[C@H](O)[C@@H](O)[C@H]3O)[C@H](C)Cl)CC2)nn1 [Example 17′, 5-[3-(4-Propyl-[1,2,3]triazol-1-yl)-propyl]-azepane-2-carboxylic acid [2-chloro-1-(3,4,5-trihydroxy-6-methylsulfanyl-tetrahydro-pyran-2-yl)-propyl]-amide] | 1 (≈ 1.82 µM) | 4 (≈ 7.3 µM) | 0.75 | markedly superior |  |  | 8 (≈ 14.6 µM) | > 8 |  |  |  |  | 
CS[C@H]1O[C@H]([C@H](NC(=O)[C@@H]2CC[C@H](CCCn3cc(C(C)C)nn3)CCN2)[C@H](C)Cl)[C@H](O)[C@H](O)[C@H]1O [Example 18′, 5-[3-(4-(2-Propyl)-[1,2,3]triazol-1-yl)-propyl]-azepane-2-carboxylic acid [2-chloro-1-(3,4,5-trihydroxy-6-methylsulfanyl-tetrahydro-pyran-2-yl)-propyl]-amide] | 1 (≈ 1.82 µM) | 4 (≈ 7.3 µM) | 0.44 | markedly superior |  |  | 4 (≈ 7.3 µM) | > 8 |  |  |  |  | 
CS[C@H]1O[C@H]([C@H](NC(=O)[C@@H]2CCCCCN2)[C@H](C)Cl)[C@H](O)[C@H](O)[C@H]1O [VIII(18), Azepane-2-carboxylic acid [2-chloro-1-(3,4,5-trihydroxy-6-methylsulfanyl-tetrahydro-pyran-2-yl)-propyl]-amide, reference compound] | 4 (≈ 10.1 µM) | > 8 | 21 |  |  |  | 8 (≈ 20.2 µM) | 2 (≈ 5.04 µM) |  |  | 4 (≈ 10.1 µM) | > 8 | 8 (≈ 20.2 µM)
